pEC50, pIC50: −log10 of the molar value.
What was measured:
5-HT2A receptor [1] = target: T1, 5-HT2A receptor (Rattus norvegicus, UniProt P14842); assay: 5-HT2 Receptor Binding Assay ([125I]DOI competition); conditions: [125I]DOI binding, post mortem rat or human cerebral cortex homogenates
Protocol: The procedures described herein in Method 1 can be used to confirm a compound's 5-HT2 binding affinity.
5-HT2 Receptor Binding Assay
Aliquots of post mortem rat or human cerebral cortex homogenates (400 μL) dispersed in 50 mM TrisHCl buffer (pH 7.4) are incubated with [^125I]DOI (80 pM final) in the absence or presence of methiothepin (10 μM final) to define total and non-specific binding, respectively, in a total volume of 0.5 mL. The assay mixture is incubated for 1 hour at 23° C. in polypropylene tubes and the assays terminated by rapid vacuum filtration over Whatman GF/B glass fiber filters previously soaked in 0.3% polyethyleneimine using ice-cold buffer. Test compounds (at different concentrations) are substituted for methiothepin. Filter-bound radioactivity is determined by scintillation spectrometry on a beta counter. The data are analyzed using a non-linear, iterative curve-fitting computer program [Trends Pharmacol. Sci., 16, 413 (1995)] to determine the compound affinity parameter. The concentration of the compound needed to inhibit the [^125I]DOI binding by 50% of the maximum is termed the IC50 or Ki value.

5-HT2A receptor [2] = target: T1, 5-HT2A receptor; assay: 5-HT2 Functional Assay: [Ca2+]i Mobilization (FLIPR); type: cell-based; set-up: endogenous in cells; host or cells: A7r5 rat vascular smooth muscle cells; conditions: for pEC50: [Ca2+]i mobilization, rat vascular smooth muscle cells A7r5; for Emax: percentage of maximum 5-HT-induced response, A7r5 cells
Protocol: 5-HT2 Functional Assay: [Ca^2+]i; Mobilization
The receptor-mediated mobilization on intracellular calcium ([Ca^2+]i) was studied using the Fluorescence Imaging Plate Reader (FLIPR) instrument. Rat vascular smooth muscle cells, A7r5, were grown in a normal media of DMEM/10% FBS and 10 μg/mL gentamycin. Confluent cell monolayers were trypsinized, pelleted, and re-suspended in normal media. Cells were seeded in a 50 μL volume at a density of 20,000 cells/well in a black wall, 96-well tissue culture plate and grown for 2 days.
On the day of the experiment, one vial of FLIPR Calcium Assay Kit dye was re-suspended in 50 mL of a FLIPR buffer consisting of Hank's Balanced Salt Solution (HBSS), 20 mM HEPES, and 2.5 mM probenecid, pH 7.4. Cells were loaded with the calcium-sensitive dye by addition of an equal volume (50 μL) to each well of the 96-well plate and incubated with dye for 1 h at 23° C.
Typically, test compounds were stored at 25 μM in 50% DMSO/50% Ethanol solvent. Compounds were diluted 1:50 in 20% DMSO/20% Ethanol. For “hit” screening, compounds were further diluted 1:10 in FLIPR buffer and tested at a final concentration of 10 μM. For dose-response experiments, compounds were diluted 1:50 in FLIPR buffer and serially diluted 1:10 to give a 5- or 8-point dose-response curve.
The compound plate and cell plate were placed in the FLIPR instrument. At the beginning of an experimental run, a signal test was performed to check the basal fluorescence signal from the dye-loaded cells and the uniformity of the signal across the plate. The basal fluorescence was adjusted between 8000–12000 counts by modifying the exposure time, the camera F-stop, or the laser power. Instrument settings for a typical assay were the following: laser power 0.3–0.6 W, camera F-stop F/2, and exposure time 0.4 sec. An aliquot (25 μL) of the test compound was added to the existing 100 μL dye-loaded cells at a dispensing speed of 50 μL/sec. Fluorescence data were collected in real-time at 1.0 sec intervals for the first 60 secs and at 6.0 sec intervals for an additional 120 secs. Responses were measured as peak fluorescence intensity minus basal and where appropriate were expressed as a percentage of a maximum 5-HT-induced response. When the compounds were tested as antagonists against 10 μM 5-HT, they were incubated with the cells for 15 minutes prior to the addition of 5-HT.

T1 sequence (P14842 whole entry): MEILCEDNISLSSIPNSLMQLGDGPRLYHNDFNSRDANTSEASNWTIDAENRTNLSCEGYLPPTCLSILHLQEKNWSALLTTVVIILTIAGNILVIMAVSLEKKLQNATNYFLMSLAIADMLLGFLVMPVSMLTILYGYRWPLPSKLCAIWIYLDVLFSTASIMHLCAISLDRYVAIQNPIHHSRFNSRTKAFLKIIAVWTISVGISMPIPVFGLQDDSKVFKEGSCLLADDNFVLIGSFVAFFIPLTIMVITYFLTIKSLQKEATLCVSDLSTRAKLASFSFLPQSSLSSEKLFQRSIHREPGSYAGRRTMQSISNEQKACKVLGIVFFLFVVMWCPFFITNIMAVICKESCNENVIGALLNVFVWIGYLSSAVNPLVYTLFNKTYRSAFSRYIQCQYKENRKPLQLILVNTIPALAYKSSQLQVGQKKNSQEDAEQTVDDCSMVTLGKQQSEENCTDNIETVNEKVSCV

COc1nc2c(ccc3cnn(C[C@H](C)N)c32)o1 [Example 1, (S)-2-(7-Methoxy-1H-pyrazolo[3,4-e]benzoxazol-1-yl)-1-methylethylamine]
pIC50 (5-HT2A receptor [1]): 8.10
pEC50 (5-HT2A receptor [2]): 6.45
Emax (5-HT2A receptor [2]): 72%

COCc1nc2c(ccc3cnn(C[C@H](C)N)c32)o1 [Example 2, (S)-2-[7-(Methoxymethyl)-1H-pyrazolo[3,4-e]benzoxazol-1-yl]-1-methylethylamine]
pIC50 (5-HT2A receptor [1]): 8.22
pEC50 (5-HT2A receptor [2]): 6.76
Emax (5-HT2A receptor [2]): 88%
melting point: 40 to 43 °C

C[C@H](N)Cn1ncc2ccc3oc(C(N)=O)nc3c21 [Example 3, 1-[(S)-2-Aminopropyl]-1H-pyrazolo[3,4-e]benzoxazole-7-carboxylic acid amide]
pEC50 (5-HT2A receptor [2]): 6.35
Emax (5-HT2A receptor [2]): 72%
melting point: 60 to 65 °C

CNC(=O)c1nc2c(ccc3cnn(C[C@H](C)N)c32)o1 [Example 4, 1-[(S)-2-Aminopropyl]-1H-pyrazolo[3,4-e]benzoxazole-7-carboxylic acid methylamide]
pIC50 (5-HT2A receptor [1]): 7.72
pEC50 (5-HT2A receptor [2]): 6.04
Emax (5-HT2A receptor [2]): 77%

Source: patent US7129257B1, “Pyrazolo[3,4- e]benzoxazoles for the treatment of glaucoma” (Alcon, Inc., priority 2003, dated 2006)
